Assay results from patent US20240174662A1, “SMALL MOLECULE INHIBITORS OF SALT INDUCIBLE KINASES” (Janssen Biotech, Inc., priority 2021, published 2024).

The compounds below were run against SIK2 (Homo sapiens (Human), UniProt Q9H0K1) (assay: SIK2 Enzymatic Assay Version 2 (High ATP)). Settings: 3 mM ATP and 200 μM HDAC5tide final, ADP-Glo Max luminescence.
Type: biochemical
Procedure, shortened: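 Luminescent ADP-Glo Max read-out: depletion reagent 2 h, then detection reagent 1 h. Before the reaction, compounds were incubated 30 min with enzyme added at 6 nM (twice final concentration), with all steps at room temperature.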

SIK2, sequence (Q9H0K1 whole entry, species assumed): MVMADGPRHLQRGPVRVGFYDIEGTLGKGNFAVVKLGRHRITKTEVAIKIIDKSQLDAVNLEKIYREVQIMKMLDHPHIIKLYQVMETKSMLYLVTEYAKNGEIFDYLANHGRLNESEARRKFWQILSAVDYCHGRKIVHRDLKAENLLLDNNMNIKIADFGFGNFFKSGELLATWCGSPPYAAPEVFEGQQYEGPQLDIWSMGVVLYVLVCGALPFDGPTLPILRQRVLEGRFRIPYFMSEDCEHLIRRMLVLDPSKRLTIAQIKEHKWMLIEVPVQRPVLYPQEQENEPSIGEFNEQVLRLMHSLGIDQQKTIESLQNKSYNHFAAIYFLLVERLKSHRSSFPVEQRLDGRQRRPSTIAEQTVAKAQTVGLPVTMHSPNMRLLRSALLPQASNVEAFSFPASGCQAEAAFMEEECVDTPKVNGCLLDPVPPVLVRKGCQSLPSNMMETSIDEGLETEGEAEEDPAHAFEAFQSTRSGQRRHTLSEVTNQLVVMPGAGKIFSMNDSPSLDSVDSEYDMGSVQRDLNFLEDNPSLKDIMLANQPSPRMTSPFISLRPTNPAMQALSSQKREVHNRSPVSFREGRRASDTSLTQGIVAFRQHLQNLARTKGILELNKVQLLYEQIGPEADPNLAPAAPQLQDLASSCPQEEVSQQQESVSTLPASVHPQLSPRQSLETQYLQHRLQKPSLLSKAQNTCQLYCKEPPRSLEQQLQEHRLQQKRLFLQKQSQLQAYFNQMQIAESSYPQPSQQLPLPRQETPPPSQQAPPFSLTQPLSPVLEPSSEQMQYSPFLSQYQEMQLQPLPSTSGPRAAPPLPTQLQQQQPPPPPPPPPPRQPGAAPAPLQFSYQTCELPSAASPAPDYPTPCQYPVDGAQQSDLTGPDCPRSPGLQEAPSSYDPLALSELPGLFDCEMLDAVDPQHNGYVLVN

IC50 [nM]	SMILES
3.5	Cn1ncc(OC[C@H]2CCN2CCF)c1-c1ccn2nc(NC(=O)C3CC3)cc2c1 [Example 241, N-[5-[4-[[(2R)-1-(2-fluoroethyl)azetidin-2-yl]methoxy]-2-methyl-pyrazol-3-yl]pyrazolo[1,5-a]pyridin-2-yl]cyclopropanecarboxamide]
8.3	Cn1ncc(O[C@@H]2CNC[C@@H]2F)c1-c1ccn2nc(NC(=O)C3CC3)cc2c1 [Example 242, N-[5-[4-[(3R,4S)-4-fluoropyrrolidin-3-yl]oxy-2-methyl-pyrazol-3-yl]pyrazolo[1,5-a]pyridin-2-yl]cyclopropanecarboxamide]
11.3	COCCN1CC[C@@H]1COc1cnn(C)c1-c1ccn2nc(NC(=O)C3CC3)cc2c1 [Example 243, N-[5-[4-[[(2R)-1-(2-methoxyethyl)azetidin-2-yl]methoxy]-2-methyl-pyrazol-3-yl]pyrazolo[1,5-a]pyridin-2-yl]cyclopropanecarboxamide]
6.3	CC(C)CN1CC[C@@H]1COc1cnn(C)c1-c1ccn2nc(NC(=O)C3CC3)cc2c1 [Example 244, N-[5-[4-[[(2R)-1-isobutylazetidin-2-yl]methoxy]-2-methyl-pyrazol-3-yl]pyrazolo[1,5-a]pyridin-2-yl]cyclopropanecarboxamide]
13.7	Cn1ncc(OC[C@H]2CCN2CC(C)(C)O)c1-c1ccn2nc(NC(=O)C3CC3)cc2c1 [Example 245, N-[5-[4-[[(2R)-1-(2-hydroxy-2-methyl-propyl)azetidin-2-yl]methoxy]-2-methyl-pyrazol-3-yl]pyrazolo[1,5-a]pyridin-2-yl]cyclopropanecarboxamide]
1.6	CCCN1CC[C@@H]1COc1cnn(C)c1-c1ccn2nc(NC(=O)C3CC3)cc2c1 [Example 246, N-[5-[2-methyl-4-[[(2R)-1-propylazetidin-2-yl]methoxy]pyrazol-3-yl]pyrazolo[1,5-a]pyridin-2-yl]cyclopropanecarboxamide]
2.7	Cn1ncc(OC[C@H]2CCN2CC2CC2)c1-c1ccn2nc(NC(=O)C3CC3)cc2c1 [Example 247, N-[5-[4-[[(2R)-1-(cyclopropylmethyl)azetidin-2-yl]methoxy]-2-methyl-pyrazol-3-yl]pyrazolo[1,5-a]pyridin-2-yl]cyclopropanecarboxamide]
25.5	[2H]C([2H])([2H])N1CCC[C@@H]1COc1cnn(C)c1-c1ccn2nc(NC(=O)C3CC3)cc2c1 [Example 249, N-[5-[2-methyl-4-[[(2R)-1-(trideuteriomethyl)pyrrolidin-2-yl]methoxy]pyrazol-3-yl]pyrazolo[1,5-a]pyridin-2-yl]cyclopropanecarboxamide]
45.6	CC(=O)CN1CC[C@@H]1COc1cnn(C)c1-c1ccn2nc(NC(=O)C3CC3)cc2c1 [Example 251, N-[5-[4-[[(2R)-1-acetonylazetidin-2-yl]methoxy]-2-methyl-pyrazol-3-yl]pyrazolo[1,5-a]pyridin-2-yl]cyclopropanecarboxamide]
9.4	C[C@@H](O)CN1CC[C@@H]1COc1cnn(C)c1-c1ccn2nc(NC(=O)C3CC3)cc2c1 [Example 252, N-[5-[4-[[(2R)-1-[(2R)-2-hydroxypropyl]azetidin-2-yl]methoxy]-2-methyl-pyrazol-3-yl]pyrazolo[1,5-a]pyridin-2-yl]cyclopropanecarboxamide]
2.4	C[C@H](O)CN1CC[C@@H]1COc1cnn(C)c1-c1ccn2nc(NC(=O)C3CC3)cc2c1 [Example 253, N-[5-[4-[[(2R)-1-[(2S)-2-hydroxypropyl]azetidin-2-yl]methoxy]-2-methyl-pyrazol-3-yl]pyrazolo[1,5-a]pyridin-2-yl]cyclopropanecarboxamide]
1.5	[2H]C([2H])([2H])C([2H])([2H])N1CC[C@@H]1COc1cnn(C)c1-c1ccn2nc(NC(=O)C3CC3)cc2c1 [Example 254, N-[5-[2-methyl-4-[[(2R)-1-(1,1,2,2,2-pentadeuterioethyl)azetidin-2-yl]methoxy]pyrazol-3-yl]pyrazolo[1,5-a]pyridin-2-yl]cyclopropanecarboxamide]
